Data: patent US8394788B2, “Phenylsulfoxyoxazole compound inhibitors of urea transporters” (The Regents of the University of California, priority 2006, dated 2013)

Experiments:
RBCs from wild-type mice = experiment: Osmotic water permeability, RBCs from wild-type mice (stopped-flow); type: cell-based, mouse
Experimental: RBC urea and water permeabilities were assayed by stopped-flow light scattering using a Hi-Tech Sf-51 instrument (Wiltshire, UK). For measurement of urea permeability, dilutions of whole blood (human or mouse; see Example 1) in PBS (hematocrit: approximately 0.5%) were incubated with test compounds for 5 min and then subjected to a 250-mM inwardly directed gradient of urea. After an initial osmotic shrinking phase, the kinetics of increasing cell volume caused by urea influx were measured as the time-course of 90° scattered light intensity at 530 nm, with increasing cell volume resulting in reduced scattered light intensity. As a positive control, 0.7 mM phloretin was added to the RBC suspension prior to stopped-flow experiments. Measurements of water permeability were carried out similarly, with sucrose (cell-impermeant) used instead of urea to establish a 250-mM osmotic gradient. As a positive control, HgCl2 (0.3 mM) was added to the RBC suspension prior to stopped-flow measurements. Osmotic water permeability coefficients (Pf) were computed from light scattering data as described (van Hoek et al., J Biol. Chem. 267:18267-69 (1992)).
This example describes chemical knock-out of UT-B by UT-B inhibitors in RBCs and the effect on UT-B-facilitated water transport. […] Osmotic water permeability was measured by stopped-flow light scattering in RBCs from wild-type and AQP1-null mice as shown in FIG. 8A. […] AQP1-null RBCs had greater than 5-fold reduced Pf compared to wild-type RBCs.

rat UT-A1 = target: T1, rat UT-A1 (Rattus norvegicus, UniProt Q62668); experiment: UT-A1-facilitated urea flux across MDCK-UT-A1 cell layers; type: cell-based; settings: forskolin 10 μM; phloretin 0.7 mM
T1 sequence (Q62668 1-929): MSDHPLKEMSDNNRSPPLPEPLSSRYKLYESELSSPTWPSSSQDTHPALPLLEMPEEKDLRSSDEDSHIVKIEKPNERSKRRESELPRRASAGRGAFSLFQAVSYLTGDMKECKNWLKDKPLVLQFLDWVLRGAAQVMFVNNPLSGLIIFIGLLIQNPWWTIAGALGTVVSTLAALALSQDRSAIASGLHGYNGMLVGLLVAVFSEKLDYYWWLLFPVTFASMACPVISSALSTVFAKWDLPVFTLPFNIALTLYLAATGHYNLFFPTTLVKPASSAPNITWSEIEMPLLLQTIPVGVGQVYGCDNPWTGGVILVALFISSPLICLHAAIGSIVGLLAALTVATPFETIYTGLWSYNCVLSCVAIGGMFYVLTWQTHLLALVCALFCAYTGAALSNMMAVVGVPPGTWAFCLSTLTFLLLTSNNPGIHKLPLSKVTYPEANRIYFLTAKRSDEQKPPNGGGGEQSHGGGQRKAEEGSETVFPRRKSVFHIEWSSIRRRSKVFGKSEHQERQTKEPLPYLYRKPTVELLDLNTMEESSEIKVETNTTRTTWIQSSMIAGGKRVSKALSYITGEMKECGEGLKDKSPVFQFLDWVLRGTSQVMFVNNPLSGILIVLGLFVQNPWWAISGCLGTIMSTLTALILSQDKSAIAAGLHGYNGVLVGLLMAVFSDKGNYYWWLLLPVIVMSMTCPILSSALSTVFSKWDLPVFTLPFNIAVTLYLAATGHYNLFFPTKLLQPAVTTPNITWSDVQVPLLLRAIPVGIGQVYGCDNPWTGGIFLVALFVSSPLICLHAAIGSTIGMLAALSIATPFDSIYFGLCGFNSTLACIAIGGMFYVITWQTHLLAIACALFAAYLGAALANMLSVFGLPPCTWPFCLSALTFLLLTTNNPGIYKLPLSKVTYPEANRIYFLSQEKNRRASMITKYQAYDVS
Experimental: Concentration-inhibition studies were performed to study the effect of the active mouse UT-B inhibitors on urea transport by UT-A. The amino acid sequences of UT-B and UT-A urea transporter isoforms share significant similarity. The cells used in these studies were MDCK cells that expressed rat UT-A1. MDCK-UT-A1-expressing cells were grown on collagen-coated porous filters until they were electrically tight, at which point 15 mM urea was introduced into buffer bathing the basolateral cell surface. […]
UT-A1-facilitated urea flux in the basolateral-to-apical direction across unstimulated and forskolin-stimulated MDCK-UT-A1 cell layers was measured in response to a 15-mM urea gradient. […] Five μL samples of apical fluid were collected at specified times during incubation at 37° C., and urea concentration was determined using a commercial kit based on chromogenic urea complexation at 520-nm wavelength (Quantichrom™ Urea Assay Kit, BioAssay Systems, Hayward, Calif.). […] Aforsk, and Aphlor were averaged absorbance values (at 520 nm) for cultures treated with forskolin and forskolin+phloretin, respectively, and Atest were values from cultures treated with forskolin+test compound.

UT = settings: cited from earlier work

SMILES: O=C(CCc1ccc(O)cc1)c1c(O)cc(O)cc1O [phloretin, reference compound]
- reduction in Pf (RBCs from wild-type mice; 0.7 mM, wild-type mouse RBCs): small but significant reduction
- effect on water transport in RBCs from wild-type mice (RBCs from wild-type mice; 10° C., 250-mM sucrose gradient): little effect
- effect on UT-A1-facilitated urea transport (rat UT-A1): inhibited
- concentration exhibiting activity as UT inhibitor (UT): > 0.5 mM
